Laboratory results: patent publication US20070167528A1, “Methods of treating hepatocellular carcinoma with denspm” (Genzyme Corporation, priority 2004, published 2007)

Columns and labels:
[1] = Physical and chemical stability of DENSPM preparations at room temperature; format: physicochemical
Description: DENSPM may be supplied as a lyophilized powder, for example packaged in 10 mL clear glass vials containing 215 mg. Such a lyophilized powder may be prepared by dissolving DENSPM hydrochloride in sterile WFI to provide a 5% solution. Such solution may be pH adjusted to a pH of preferably between about 5.8 and 6.2, most preferably 6.0, with 2N NaOH. 4.3 ml of this solution is sterile filled into the glass vials thru Millipak (R) 0.45 and 0.22 micron filters and then lyophilized. […] DENSPM is reconstituted with 4.3 mL of water for injection, USP. The resulting solution contains 50 mg/mL of DENSPM and is chemically and physically stable for up to approximately 96 hours at room temperature. When further diluted in 50 mL normal saline, the resulting admixture is chemically and physically stable for up to 24 hours when stored at room temperature. After reconstitution, the drug is normally used within 8 hours because it contains no preservatives.

[2] = stated as known effect of DENSPM; cited from earlier work
[3] = Solubility of DENSPM hydrochloride salt in sterile water for injection; format: physicochemical; settings: as its hydrochloride salt
Description: The terms “pharmaceutical composition” and “pharmaceutical preparation” are used interchangeably herein to mean DENSPM in association with a pharmaceutically-acceptable carrier. Excipients and/or adjuvants may optionally be added to the pharmaceutical preparations. DENSPM preparations may be conveniently provided in unit dosage form and may be prepared by methods well-known in the art of pharmacy. Formulations suitable for intravenous administration are preferred. […] Such a solution may be filled into individual dose vials and lyophilized for future reconstitution and administration.

Structure (SMILES): CCNCCCNCCCNCCCNCC [DENSPM, N,N′-Bis[3-(ethylamino)propyl],1,3-propanediamine]
- chemical and physical stability of diluted admixture ([1]; further diluted in 50 mL normal saline, stored at room temperature): up to 24 hours
- physical and chemical stability of lyophilized powder ([1]; lyophilized powder from 5% DENSPM hydrochloride solution, pH about 6.0, stored at room temperature): physically and chemically stable
- chemical and physical stability of reconstituted solution ([1]; reconstituted with 4.3 mL water for injection, 50 mg/mL, room temperature): ≤ 96 h
- serum creatinine levels [2]: transiently and reversibly elevate serum creatinine levels
- solubility [3]: relatively high solubility
